Values quoted from earlier work as cited in patent US20020187562A1, “Materials for separating and detecting enantiomers of amphetamine or methamphetamine, and their application” (priority 2001, published 2002).

System: central nervous system
Settings: relative to D-MA

For `CN[C@H](C)Cc1ccccc1` [L-MA, (R)-(−)-N-methyl-1-phenyl-2-aminopropane], the “stimulation to the central nervous system of humans compared with D-MA” value is given as “much weaker than that of D-MA”.
